Results reported in patent US12186311B2, “Antiproliferative compounds and second active agents for combined use” (Celgene Corporation, priority 2019, dated 2025).

How the values were obtained:
Type in all cases: cell-based
[1] = tested on: AMO1 (parental) cell line; experiment: Cell proliferation, combination with Compound 2, combination index (Calcusyn), AMO1; details: AMO1, 3 days
Experimental: (§1) AMO1 (parental) and AMO1-PR (pomalidomide resistant) cell lines were treated with various doses of Compound 2 in combination with increasing doses of an MEK inhibitor trametinib for 3 days. Cell proliferation was analyzed using thymidine incorporation assays. Combination index values were calculated by Calcusyn and values below 10^0 represented the synergy between the combination treatments. The results are shown in FIG. 4A (AMO1), FIG. 4B (AMO1 combination index), FIG. 4C (AMO1-PR), and FIG. 4D (AMO1-PR combination index), respectively.
(§2) AMO1 and AMO1-PR (pomalidomide resistant) cell lines were treated with increasing doses of Compound 2 in combination with a PLK1 inhibitor (BI2536). Changes in cell proliferation were studied in response to monotherapy and combinations at Day 3 post treatment. Combination Index was calculated using Calcusyn based method. Combination index values were calculated by Calcusyn and values below 10^0 represented the synergy between the combination treatments. PLK1 is one of the key target gene of MDMS8 (molecularly defined myeloma segment 8), a high risk cluster identified from myeloma genome project. The results are shown in FIG. 6A (AMO1), FIG. 6B (AMO1 combination index), FIG. 6C (AMO1-PR), and FIG. 6D (AMO1-PR combination index), respectively. Inhibition of MDMS8 target gene PLK1 with Compound 2 is synergistic in AMO1 and AMO1-PR cells.
(§3) AMO1 and AMO1-PR (pomalidomide resistant) cell lines were treated with increasing doses of Compound 2 in combination with an NEK2 inhibitor (JH295). Changes in cell proliferation were studied in response to monotherapy and combinations at Day 3 post treatment. Combination index values were calculated by Calcusyn and values below 10^0 represented the synergy between the combination treatments. NEK2 is one of the key target gene of MDMS8 (molecularly defined myeloma segment 8), a high risk cluster identified from myeloma genome project. The results are shown in FIG. 7A (AMO1 combination index) and FIG. 7B (AMO1-PR combination index), respectively. Inhibition of MDMS8 target gene NEK2 with Compound 2 is synergistic in AMO1 and AMO1-PR cells.
(§4) AMO1, AMO1-PR (pomalidomide resistant), K12PE and K12PE-PR (pomalidomide resistant) cell lines were treated with increasing doses of Compound 2 in combination with an AURKB inhibitor (AZD 1152). […] Combination index values were calculated by Calcusyn and values below […] represented the synergy between the combination treatments. […]
(§5) AMO1, AMO1-PR (pomalidomide resistant) cell lines were treated with increasing doses of Compound 2 in combination with a BIRC5 inhibitor (YM155). […] Combination index values were calculated by Calcusyn and values below 10^0 represented the synergy between the combination treatments. […]

[2] = tested on: AMO1-PR (pomalidomide resistant) cell line; experiment: Cell proliferation, combination with Compound 2, combination index (Calcusyn), AMO1-PR; details: 3 days
Experimental: as §1, §2, §3, §4, §5

[3] = tested on: MM cell lines OPM.2-P10, H929-1051, KMS12BM PR, L363, JJN3; experiment: 7 day combination assay (Annexin V/7-AAD flow cytometry, fractional product method), MM cell line panel; details: panel of 5 MM cell lines, 7 day assay, 3 days priming with second agent
Experimental: Five MM cell lines with acquired or inherent resistance to lenalidomide or pomalidomide were included in the studies (OPM.2-P10, H929-1051, KM[…] PR, L363, and JJN3). […] The assay was performed in a 96-well plate. All MM cell lines were cultured in an incubator at 37° C. with 5% CO2 using the indicated cell culture media containing 1×Penicillin-Streptomycin. The MM cells were primed for 3 days with these second agents at the single agent IC50 value. […] Compound 2 was added to the cells at a dose range of 30 μM-0.00018 μM, depending on the cell line, for a 8 point dose response curve. The cells were incubated at 37° C. for an additional 4 days. At the end of the 7 day treatment, the MM cells were stained with Annexin V and 7-AAD and analyzed on a flow cytometer. Live MM cells were identified as Annexin V and 7-AAD double negative cells. In these experiments, synergy calculations were performed using the fractional product method (Webb, 1963).

[4] = tested on: panel of MM cell lines (H929-1051, KMS11, KMS-12PE, L363, OPM-P10, RPMI8226); experiment: Compound 2 combination with small molecule inhibitors, 3 day Cell Titer-Glo, Highest Single Agent synergy; details: six MM cell lines, 3 days, Highest Single Agent method
Experimental: The combination experiments were run twice, each time with replicate data on separate plates. Compounds were pre-spotted into the appropriate wells of 384-well plates using an acoustic dispenser. All MM cell lines were cultured in an incubator at 37° C. with 5% CO2 using the indicated cell culture media containing 1× Penicillin-Streptomycin. Cells were added to the compound containing 384-well plates using a Multidrop Combi Reagent Dispenser and allowed to incubate for 3 days at 37° C. with 5% CO2. After 3 days, cells were assessed for their level of ATP content via Cell Titer-Glo measured on a luminescence detector (PerkinElmer Envision).
The Highest Single Agent (HAS) method was used to detect synergy in the dose response curve data. Combinations were analyzed from a response surface perspective.

Question: `CC[C@@H]1C(=O)N(C)c2cnc(Nc3ccc(C(=O)NC4CCN(C)CC4)cc3OC)nc2N1C1CCCC1` [BI2536, (R)-4-((8-cyclopentyl-7-ethyl-5-methyl-6-oxo-5,6,7,8-tetrahydropteridin-2-yl)amino)-3-methoxy-N-(1-methylpiperidin-4-yl)benzamide] was tested. Which “synergy with Compound 2 (combination index)” value (shortened to “synergy … (combination index)”) [1] did it give?
Answer: synergistic

Question: What about the “synergy … (combination index)” value [2] of the same compound?
Answer: synergistic

Question: With `Nc1ncn([C@@H]2O[C@H](CO)[C@@H](O)[C@H]2O)c(=O)n1` [azacitidine, 4-amino-1-β-D-ribofuranosyl-1,3,5-triazin-2(1H)-one] as the compound, how does the “synergy in combination with Compound 2” value [3] read?
Answer: synergy in 4 of the cell lines tested

Question: How did the “synergy in combination with Compound 2” value [4] turn out when `Cc1cnc(Nc2ccc(OCCN3CCCC3)cc2)nc1Nc1cccc(S(=O)(=O)NC(C)(C)C)c1` [fedratinib, N-tert-butyl-3-[(5-methyl-2-{4-[2-(pyrrolidin-1-yl)ethoxy]anilino}pyrimidin-4-yl)amino]benzenesulfonamide] was run?
Answer: synergy in one, two, or three out of the six cell lines tested

Question: For `C=CC(=O)N1CCC[C@@H](n2nc(-c3ccc(Oc4ccccc4)cc3)c3c(N)ncnc32)C1` [ibrutinib, 1-[(3R)-3-[4-amino-3-(4-phenoxyphenyl)-1Hpyrazolo[3,4-d]pyrimidin-1-yl]-1-piperidinyl]-2-propen-1-one], which “synergy in combination with Compound 2” value [4] is on record?
Answer: synergy in one, two, or three out of the six cell lines tested

Question: What does the source list for `C#CC(=O)Nc1ccc2c(c1)/C(=C/c1[nH]c(CC)nc1C)C(=O)N2` [JH295, (Z)—N-(3-((2-ethyl-4-methyl-1H-imidazol-5-yl)methylene)-2-oxoindolin-5-yl)propiolamide]?
Answer: synergy with Compound 2 (combination index) [1]: synergistic; synergy with Compound 2 (combination index) [2]: synergistic

Question: Which “synergy in combination with Compound 2” value [4] does the source give for `C[C@]1(O)C[C@@H](c2nc(-c3ccc4ccc(-c5ccccc5)nc4c3)c3c(N)nccn32)C1` [linsitinib, cis-3-[8-amino-1-(2-phenyl-7-quinolinyl)imidazo[1,5-a]pyrazin-3-yl]-1-methylcyclobutanol] here?
Answer: synergy in combination with Compound 2 in four out of the six cell lines tested

Question: For `CCN(c1cc(-c2ccc(CN3CCOCC3)cc2)cc(C(=O)NCc2c(C)cc(C)[nH]c2=O)c1C)C1CCOCC1` [tazemetostat, N-[(1,2-dihydro-4,6-dimethyl-2-oxo-3-pyridinyl)methyl]-5-[ethyl(tetrahydro-2H-pyran-4-yl)amino]-4-methyl-4′-(4-morpholinylmethyl)-[1,1′-biphenyl]-3-carboxamide], which “synergy in combination with Compound 2” value [3] is on record?
Answer: synergistic in all 5 cell lines tested

Question: And the “synergy in combination with Compound 2” value [4]?
Answer: synergy in one, two, or three out of the six cell lines tested

Question: `CO[C@H]1C[C@@H]2CC[C@@H](C)[C@@](O)(O2)C(=O)C(=O)N2CCCC[C@H]2C(=O)O[C@H]([C@H](C)C[C@@H]2CC[C@@H](OCCO)[C@H](OC)C2)CC(=O)[C@H](C)/C=C(\C)[C@@H](O)[C@@H](OC)C(=O)[C@H](C)C[C@H](C)/C=C/C=C/C=C/1C` [everolimus, 40-O-(2-hydroxyethyl)-rapamycin] was tested. Which “synergy in combination with Compound 2” value [4] did it give?
Answer: synergy in combination with Compound 2 in five out of the six cell lines tested

Question: Which “synergy … (combination index)” value [1] does the source give for `COCCn1c2c([n+](Cc3cnccn3)c1C)C(=O)c1ccccc1C2=O.[Br-]` [YM155, 1-(2-methoxyethyl)-2-methyl-4,9-dioxo-3-(pyrazin-2-ylmethyl)-4,9-dihydro-1H-naphtho[2,3-d]imidazol-3-ium bromide] here?
Answer: synergistic

Question: And the “synergy … (combination index)” value [2]?
Answer: synergistic

Question: How did the “synergy in combination with Compound 2” value [3] turn out when `COc1cc(C)[nH]c(=O)c1CNC(=O)c1c(C)n([C@H](C)C2CCN(CC(F)(F)F)CC2)c2ccccc12` [CPI-1205, (R)—N-((4-methoxy-6-methyl-2-oxo-1,2-dihydropyridin-3-yl)methyl)-2-methyl-1-(1-(1-(2,2,2-trifluoroethyl)piperidin-4-yl)ethyl)-1H-indole-3-carboxamide] was run?
Answer: synergistic in all 5 cell lines tested

Question: `CC(C)N(CCCNC(=O)Nc1ccc(C(C)(C)C)cc1)C[C@H]1O[C@@H](n2cc(Br)c3c(N)ncnc32)[C@H](O)[C@@H]1O` [SGC0946, 5 bromo-7-[5-deoxy-5-[[3-[[[[4-(1,1-dimethylethyl)phenyl]amino]carbonyl]amino]propyl](1-methylethyl)amino]-β-D-ribofuranosyl]-7H-pyrrolo[2,3-d]pyrimidin-4-amine] was tested. Which “synergy in combination with Compound 2” value [4] did it give?
Answer: synergy in one, two, or three out of the six cell lines tested

Question: How did the “synergy in combination with Compound 2” value [4] turn out when `O=C(/C=C\n1cnc(-c2cc(C(F)(F)F)cc(C(F)(F)F)c2)n1)NNc1cnccn1` [selinexor, (2Z)-3-{3-[3,5-bis(trifluoromethyl)phenyl]-1H-1,2,4-triazol-1-yl}-N′-(pyrazin-2-yl)prop-2-enehydrazide] was run?
Answer: synergy in one, two, or three out of the six cell lines tested

Question: Which “synergy in combination with Compound 2” value [3] does the source give for `CC(C)N(C[C@H]1O[C@@H](n2cnc3c(N)ncnc32)[C@H](O)[C@@H]1O)C1CC(CCc2nc3cc(C(C)(C)C)ccc3[nH]2)C1` (stereo partly drawn) [pinometostat, (2R,3R,4S,5R)-2-(6-amino-9H-purin-9-yl)-5-((((1r,3S)-3-(2-(5-(tert-butyl)-1H-benzo[d]imidazol-2-yl)ethyl)cyclobutyl)(isopropyl)amino)methyl)tetrahydrofuran-3,4-diol] here?
Answer: Synergy was also evident
